Measured values published in patent publication US9850227B2 (YUHAN CORPORATION, priority 2011, dated 2017).
Where a name gives a salt, the structure may show the parent alone.

Target: T1, human 5-HT4(a) (Homo sapiens, UniProt Q13639)
T1 construct: host or cells: GeneBIAzer HTR4-CRE-bla CHO-K1 cells
Test: Evaluation of agonistic activity in CHO-K1 cells expressing human 5-HT4(a) (GeneBIAzer HTR4-CRE-bla CHO-K1 cells, beta-lactamase fluorescence ratio, EC50 from 8 concentrations)
Assay type: cell-based
Procedure: Evaluation of Agonistic Activity in CHO-K1 Cells Expressing Human 5-HT4(a)
As CHO-K1 cells stably expressing human 5-HT4(a), we used the GeneBIAzer HTR4-CRE-bla CHO-K1 cells (Invitrogen Corp.). The cells were cultured, under the condition of 37° C. and 5% CO2, in a DMEM supplemented with 10% fetal bovine serum (FBS), 25 mM HEPES (pH7.4), 600 μg/ml hygromycin B, 0.1 mM non-essential amino acids, 100 unit/ml penicillin and 100 μg/ml streptomycin. Subcultures were performed three times per one week, each being at less than 80% confluence. At the previous day before treating test compounds, the cells were collected using 0.5% trypsin/EDTA and then diluted with a DMEM supplemented with 1% FBS, 25 mM HEPES, and 0.1 mM non-essential amino acids into 3.125×10^5 cells/ml. 32 μl of the diluted cells were added into 384-well plate (10^4 cells per well) and then incubated overnight. After the overnight culture, 8 μl of the medium having 1% of DMSO was added into the cell-free control well and the non-stimulating control well, respectively. 8 μl of the respective test compound dilutions (which had been prepared by diluting by 100-times with the medium as mentioned in the above) having 1% of DMSO were added to the respective remaining wells. After being cultured in the incubator for 5 hours, the wells of the 384-plate were treated with the substrate solution (8 μl per well) prepared according to the vendor's instruction (i.e., Invitrogen's instruction), and then incubated in the dark room for additional two hours. Agonistic activities on 5-HT4 receptor were evaluated, on the basis of fluorescence values of the cleavage-products by beta-lactamase. After exciting to 410 nm of wavelength using a fluorescence detector (Genios Pro), we measured the fluorescence values at two emission wavelengths (first wavelength: 465 nm, second wavelength: 535 nm). Data were analyzed on the basis of the ratio of fluorescence intensities of each well at the respective wavelengths. Each EC50 value was calculated by non-linear regression analysis using the “GraphPad Prism” program, based on the activities according to 8-different concentrations of the test compounds.

T1 sequence (Q13639 1-387 isoform Q13639-2): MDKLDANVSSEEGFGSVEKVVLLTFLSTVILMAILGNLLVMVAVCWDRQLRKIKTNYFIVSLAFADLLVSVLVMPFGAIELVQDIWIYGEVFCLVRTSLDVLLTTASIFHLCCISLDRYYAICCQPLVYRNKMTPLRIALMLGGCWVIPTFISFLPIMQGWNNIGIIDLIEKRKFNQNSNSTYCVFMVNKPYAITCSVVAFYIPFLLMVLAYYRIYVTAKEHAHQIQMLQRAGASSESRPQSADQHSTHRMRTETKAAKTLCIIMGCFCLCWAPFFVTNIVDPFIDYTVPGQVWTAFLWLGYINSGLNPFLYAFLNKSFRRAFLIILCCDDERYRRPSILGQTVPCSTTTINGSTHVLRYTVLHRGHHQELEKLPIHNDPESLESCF

Row | Structure (SMILES) | EC50 [nM]
1 | CCCc1cc(N2CCCCC2CC)nc(Nc2cccc([N+](=O)[O-])c2)n1 (stereo not drawn) [Example 99, 4-(2-ethylpiperidin-1-yl)-N-(3-nitrophenyl)-6-propylpyrimidin-2-amine] | 0.37
2 | CCCc1cc(N2CCCC3CCCCC32)nc(Nc2cccc([N+](=O)[O-])c2)n1 (stereo not drawn) [Example 188, N-(3-nitrophenyl)-4-(octahydroquinolin-1(2H)-yl)-6-propylpyrimidin-2-amine] | 0.43
3 | CCCCc1cc(N2CCC[C@@H](NC(C)=O)C2)nc(Nc2ccc(F)c([N+](=O)[O-])c2)n1 [Example 234, (R)—N-{1-[6-butyl-2-(4-fluoro-3-nitrophenylamino)pyrimidin-4-yl]piperidin-3-yl}acetamide] | 0.015
4 | CCCc1cc(N2CCCCC2CC)nc(Nc2ccc3nc(C(F)(F)F)[nH]c3c2)n1 (stereo not drawn) [Example 109, N-[4-(2-ethylpiperidin-1-yl)-6-propylpyrimidin-2-yl]-2-(trifluoromethyl)-1H-benzo[d]imidazol-6-amine] | 0.32
5 | CCCc1cc(N2CCC[C@@H](N(CC)CC)C2)nc(Nc2ccc(F)c(C#N)c2)n1 [Example 270, (R)-5-[4-(3-diethylaminopiperidin-1-yl)-6-propylpyrimidin-2-ylamino]-2-fluorobenzonitrile] | 0.148
6 | CCCCc1cc(N2CCC[C@@H](NC(C)=O)C2)nc(Nc2ccc(Cl)c([N+](=O)[O-])c2)n1 [Example 235, (R)—N-{1-[6-butyl-2-(4-chloro-3-nitrophenylamino)pyrimidin-4-yl]piperidin-3-yl}acetamide] | 0.012
7 | CCCc1cc(N2CCC[C@@H](NC(=O)CO)C2)nc(Nc2ccc(C)c(C#N)c2)n1 [Example 244, (R)—N-{1-[2-(3-cyano-4-methylphenylamino)-6-propylpyrimidin-4-yl]piperidin-3-yl}-2-hydroxyacetamide] | 0.02
8 | CCCc1cc(N2CCC[C@@H](NCC3CC3)C2)nc(Nc2cc(N)cc(C(F)(F)F)c2)n1 [Example 231, (R)—N^1-{4-[3-(cyclopropylmethylamino)piperidin-1-yl]-6-propylpyrimidin-2-yl}-5-(trifluoromethyl)benzene-1,3-diamine] | 0.0063
9 | CCCc1cc(N2CCC[C@@H](NC(=O)CO)C2)nc(Nc2ccc(F)c(C(F)(F)F)c2)n1 [Example 249, (R)—N-(1-{2-[4-fluoro-3-(trifluoromethyl)phenylamino]-6-propylpyrimidin-4-yl}piperidin-3-yl)-2-hydroxyacetamide] | 0.025
10 | CCCCN[C@@H]1CCCN(c2cc(CCC)nc(Nc3ccc(C)c(C#N)c3)n2)C1 [Example 207, (R)-5-{4-[3-(butylamino)piperidin-1-yl]-6-propylpyrimidin-2-ylamino}-2-methylbenzonitrile] | 0.013
11 | CCCc1cc(N2CCC[C@H](NCC)C2)nc(Nc2ccc(C)c(C#N)c2)n1 [Example 296, (S)-5-[4-(3-ethylaminopiperidin-1-yl)-6-propylpyrimidin-2-ylamino]-2-methylbenzonitrile dihydrochloride] | 0.015
12 | CCCc1cc(N2CCC[C@@H](N(CC)CC)C2)nc(Nc2ccc(C)c(C#N)c2)n1 [Example 269, (R)-5-[4-(3-diethylaminopiperidin-1-yl)-6-propylpyrimidin-2-ylamino]-2-methylbenzonitrile] | 0.016
13 | CCCc1cc(N2CCC[C@@H](NC(=O)CO)C2)nc(Nc2ccc(C)c(N)c2)n1 [Example 252, (R)—N-{1-[2-(3-amino-4-methylphenylamino)-6-propylpyrimidin-4-yl]piperidin-3-yl}-2-hydroxyacetamide] | 0.094
14 | CCCc1cc(N2CCCCC2CCO)nc(Nc2cccc(OC)c2)n1 (stereo not drawn) [Example 138, 2-{1-[2-(3-methoxyphenylamino)-6-propylpyrimidin-4-yl]piperidin-2-yl}ethanol] | 0.46
15 | CCCc1cc(N2CCC[C@@H](NCC3CC3)C2)nc(Nc2ccc(F)c(N)c2)n1 [Example 227, (R)—N^1-{4-[3-(cyclopropylmethylamino)piperidin-1-yl]-6-propylpyrimidin-2-yl}-4-fluorobenzene-1,3-diamine] | 0.017
16 | CCCc1cc(N2CCC[C@@H](NCC)C2)nc(Nc2ccc(F)c(N)c2)n1 [Example 289, (R)—N^1-[4-(3-ethylaminopiperidin-1-yl)-6-propylpyrimidin-2-yl]-4-fluorobenzene-1,3-diamine] | 0.0065
17 | CCCc1cc(N2CCNC[C@H]2C)nc(Nc2ccc(N)c(C#N)c2)n1 [Example 127, (R)-2-amino-5-[4-(2-methylpiperazin-1-yl)-6-propylpyrimidin-2-ylamino]benzonitrile] | 0.053

Further lines, results first:

Row | EC50 [nM] | Structure (SMILES)
18 | 0.0097 | CCCCN[C@@H]1CCCN(c2cc(CCCC)nc(Nc3ccc(C)c(C#N)c3)n2)C1 [Example 300, (R)-5-({4-butyl-6-[3-(butylamino)piperidin-1-yl]pyrimidin-2-yl}amino)-2-methylbenzonitrile]
19 | 0.0091 | CCCCc1cc(N2CCC[C@@H](NCCCSC)C2)nc(Nc2ccc(C)c(C#N)c2)n1 [Example 305, (R)-5-{[4-butyl-6-(3-{[3-(methylthio)propyl]amino}piperidin-1-yl)pyrimidin-2-yl]amino}-2-methylbenzonitrile]
20 | 0.0019 | CCCCc1cc(N2CCC[C@@H](NC)C2)nc(Nc2ccc(N)c(C(F)(F)F)c2)n1 [Example 314, (R)—N^1-{4-butyl-6-[3-(methylamino)piperidin-1-yl]pyrimidin-2-yl}-3-(trifluoromethyl)benzene-1,4-diamine]
21 | 0.049 | CCCCc1cc(N2CCC[C@@H](NCC(C)(C)C)C2)nc(Nc2ccc(C)c(C#N)c2)n1 [Example 304, (R)-5-({4-butyl-6-[3-(neopentylamino)piperidin-1-yl]pyrimidin-2-yl}amino)-2-methylbenzonitrile]
22 | 0.014 | CCCCc1cc(N2CCC[C@@H](NC)C2)nc(Nc2ccc(F)c(C#N)c2)n1 [Example 312, (R)-5-({4-butyl-6-[3-(methylamino)piperidin-1-yl]pyrimidin-2-yl}amino)-2-fluorobenzonitrile]
23 | 0.0029 | CCCCc1cc(N2CCC[C@@H](NC)C2)nc(Nc2ccc(N)c([N+](=O)[O-])c2)n1 [Example 328, (R)—N^1-{4-butyl-6-[3-(methylamino)piperidin-1-yl]pyrimidin-2-yl}-3-nitrobenzene-1,4-diamine dihydrochloride]
24 | 0.08 | CCCCc1cc(N2CCC[C@@H](N)C2)nc(Nc2ccc(C)c(OC)c2)n1 [Example 345, (R)-4-(3-aminopiperidin-1-yl)-6-butyl-N-(3-methoxy-4-methylphenyl)pyrimidin-2-amine]
25 | 0.416 | CCCc1cc(N2CCC[C@@H](NC)C2)nc(Nc2ccc(C)c(F)c2)n1 [Example 323, (R)—N-(3-fluoro-4-methylphenyl)-4-[3-(methylamino)piperidin-1-yl]-6-propylpyrimidin-2-amine]
26 | 0.132 | CCCCc1cc(N2CCC[C@@H](NC)C2)nc(Nc2ccc(OC)c(N)c2)n1 [Example 333, (R)—N^1-{4-butyl-6-[3-(methylamino)piperidin-1-yl]pyrimidin-2-yl}-4-methoxybenzene-1,3-diamine]
27 | 0.243 | CCCc1cc(N2CCC[C@@H](NC)C2)nc(Nc2ccc(C)c(C)c2)n1 [Example 322, (R)—N-(3,4-dimethylphenyl)-4-[3-(methylamino)piperidin-1-yl]-6-propylpyrimidin-2-amine]
